Source: the CheMixHub viscosity set
Values joined by “and” are separate entries in the source; they are usually repeats but may differ in a detail not shown here. Identical values can stand only once. ± gives the uncertainty stated by the source.

Test: xn = mol fraction of the nth substance listed

OC[C@H]1O[C@H](O[C@H]2[C@H](O)[C@@H](O)C(O)O[C@@H]2CO)[C@H](O)[C@@H](O)[C@@H]1O (stereo not given in full) + O
viscosity
Conditions | 293.15 K | 298.15 K | 303.15 K | 308.15 K | 313.15 K | 318.15 K
100 kPa, x1 = 0.0009465 | – | – | – | 0.759 ± 0.076 mPa·s | – | 0.627 ± 0.063 mPa·s
100 kPa, x1 = 0.000975 | – | 0.942 ± 0.021 mPa·s | – | 0.763 ± 0.021 mPa·s | – | 0.628 ± 0.02 mPa·s
100 kPa, x1 = 0.001093 | – | 0.948 ± 0.095 mPa·s | – | 0.765 ± 0.077 mPa·s | – | 0.632 ± 0.063 mPa·s
100 kPa, x1 = 0.001306 | – | 0.96 ± 0.096 mPa·s | – | 0.773 ± 0.077 mPa·s | – | 0.639 ± 0.064 mPa·s
100 kPa, x1 = 0.00134 | – | 0.96 ± 0.021 mPa·s | – | 0.776 ± 0.021 mPa·s | – | 0.639 ± 0.021 mPa·s
100 kPa, x1 = 0.001467 | – | 0.968 ± 0.097 mPa·s | – | – | – | –
100 kPa, x1 = 0.00157 | – | 0.972 ± 0.021 mPa·s | – | 0.786 ± 0.021 mPa·s | – | 0.645 ± 0.021 mPa·s
100 kPa, x1 = 0.001596 | – | 0.975 ± 0.098 mPa·s | – | 0.785 ± 0.079 mPa·s | – | 0.648 ± 0.065 mPa·s
100 kPa, x1 = 0.001818 | – | 0.985 ± 0.021 mPa·s | – | 0.794 ± 0.021 mPa·s | – | 0.655 ± 0.021 mPa·s
100 kPa, x1 = 0.002168 | – | – | – | 0.804 ± 0.021 mPa·s | – | 0.667 ± 0.021 mPa·s
100 kPa, x1 = 0.002215 | – | – | – | 0.81 ± 0.021 mPa·s | – | 0.669 ± 0.021 mPa·s
100 kPa, x1 = 0.002657 | – | 1.029 ± 0.1 mPa·s | – | 0.827 ± 0.083 mPa·s | – | 0.682 ± 0.068 mPa·s
101 kPa, x1 = 0.0009 | 1.022 ± 0.013 mPa·s | 0.9029 ± 0.011 mPa·s | 0.8044 ± 0.01 mPa·s | 0.7221 ± 0.0093 mPa·s | 0.6529 ± 0.0089 mPa·s | –
101 kPa, x1 = 0.00099 | 1.025 ± 0.013 mPa·s | 0.9064 ± 0.011 mPa·s | 0.8074 ± 0.01 mPa·s | 0.724 ± 0.0093 mPa·s | 0.6549 ± 0.0089 mPa·s | –
101 kPa, x1 = 0.0011 | 1.03 ± 0.016 mPa·s | 0.9093 ± 0.012 mPa·s | 0.8099 ± 0.011 mPa·s | 0.7266 ± 0.0098 mPa·s | 0.6564 ± 0.009 mPa·s | –
101 kPa, x1 = 0.0012 | 1.033 ± 0.017 mPa·s | 0.9119 ± 0.012 mPa·s | 0.812 ± 0.011 mPa·s | 0.7287 ± 0.0099 mPa·s | 0.6586 ± 0.009 mPa·s | –
101 kPa, x1 = 0.0013 | 1.037 ± 0.013 mPa·s and 1.041 ± 0.019 mPa·s | 0.9159 ± 0.012 mPa·s and 0.9193 ± 0.012 mPa·s | 0.8144 ± 0.011 mPa·s and 0.8178 ± 0.011 mPa·s | 0.7315 ± 0.0098 mPa·s and 0.7341 ± 0.0099 mPa·s | 0.6606 ± 0.01 mPa·s and 0.6619 ± 0.0094 mPa·s | –
101 kPa, x1 = 0.0014 | 1.045 ± 0.014 mPa·s | 0.9231 ± 0.012 mPa·s | 0.8202 ± 0.011 mPa·s | 0.7362 ± 0.0098 mPa·s | 0.6645 ± 0.0091 mPa·s | –
101 kPa, x1 = 0.0015 | 1.05 ± 0.014 mPa·s | 0.9262 ± 0.012 mPa·s | 0.823 ± 0.011 mPa·s | 0.7383 ± 0.0098 mPa·s | 0.6669 ± 0.0091 mPa·s | –
101 kPa, x1 = 0.0016 | 1.054 ± 0.015 mPa·s | – | 0.8261 ± 0.011 mPa·s | 0.7406 ± 0.0098 mPa·s | 0.6687 ± 0.0088 mPa·s | –
101 kPa, x1 = 0.0018 | 1.062 ± 0.014 mPa·s | 0.9361 ± 0.014 mPa·s | 0.833 ± 0.013 mPa·s | 0.7449 ± 0.011 mPa·s | 0.6724 ± 0.0091 mPa·s | –
101.3 kPa, x1 = 0.000724 | – | – | – | 0.751 ± 0.04 mPa·s | – | –
101.3 kPa, x1 = 0.00107 | – | 0.948 ± 0.041 mPa·s | – | 0.766 ± 0.04 mPa·s | – | 0.633 ± 0.04 mPa·s
101.3 kPa, x1 = 0.00143 | – | 0.964 ± 0.041 mPa·s | – | 0.779 ± 0.04 mPa·s | – | 0.643 ± 0.04 mPa·s
101.3 kPa, x1 = 0.00179 | – | 0.984 ± 0.041 mPa·s | – | 0.794 ± 0.04 mPa·s | – | 0.655 ± 0.04 mPa·s
101.3 kPa, x1 = 0.002146 | – | – | – | 0.809 ± 0.04 mPa·s | – | –
101.3 kPa, x1 = 0.002501 | – | 1.019 ± 0.041 mPa·s | – | 0.819 ± 0.04 mPa·s | – | 0.678 ± 0.04 mPa·s
101.3 kPa, x1 = 0.002851 | – | 1.037 ± 0.041 mPa·s | – | 0.836 ± 0.04 mPa·s | – | 0.688 ± 0.04 mPa·s
101.3 kPa, x1 = 0.003177 | – | 1.053 ± 0.041 mPa·s | – | 0.848 ± 0.04 mPa·s | – | 0.698 ± 0.04 mPa·s
